Seven compounds from patent US20250235434A1, “RIFABUTIN ANALOGS FOR THE TREATMENT OF DISEASE” (BIOVERSYS AG, priority 2022, published 2025) can be followed below.

Format in all cases: cell-based
Assay [1] deals with A. baumannii (HUMC1 strain). The assay is described as follows: MIC by broth microdilution against A. baumannii. Particulars: Acinetobacter baumannii, RPMI medium supplemented with 10% FCS, 35° C. for 20 hours, visual reading. (Dilution methods test growth across graded concentrations, often in twofold steps.)
Assay [2] concerns M. kansasii (ATCC 12478). The assay is described as follows: MIC against M. kansasii (resazurin assay). The following applies: Mycobacterium kansasii, ATCC12478, 168 h, Middlebrook 7H9 + ADC, 90% growth inhibition, 7 days. For orientation: Alamar Blue is a resazurin reagent that responds to reducing activity.
Assay [3] has as its system M. tuberculosis H37Rv (ATCC 27294). The assay is described as follows: microbe, parasite or virus in culture. The following applies: Mycobacterium tuberculosis, 120 h.
Assay [4] deals with M. avium (ATCC 25291). The assay is described as follows: MIC against M. avium (resazurin assay). The following applies: Mycobacterium avium, ATCC25291, 168 h, Middlebrook 7H9 + ADC, 90% growth inhibition, 7 days.
In assay [5] the test system is S. aureus (UAMS-1625 strain). The assay is described as follows: MIC by broth microdilution against S. aureus. Particulars: Staphylococcus aureus, 20 h, read-out: MIC S. aureus.
Assay [6] concerns M. smegmatis (ATCC 700084). The assay is described as follows: MIC against M. smegmatis (resazurin assay). Particulars: Mycolicibacterium smegmatis, ATCC700084, Middlebrook 7H9 + ADC, 90% growth inhibition, 20 h.
The subject of assay [7] is M. abscessus (ATCC 19977). The assay is described as follows: MIC by broth microdilution against M. abscessus. Particulars: Mycobacteroides abscessus, ATCC19977, 20 h; ATCC 19977; Middlebrook 7H9 broth with ADC supplement; visual reading; read-out: MIC M. abscessus.
The test system of assay [8] is M. xenopi (ATCC 19250). The assay is described as follows: MIC against M. xenopi (resazurin assay). The following applies: Mycobacterium xenopi, ATCC19250, 168 h, Middlebrook 7H9 + ADC, 90% growth inhibition, 7 days.

Converted amounts (≈) assume the structure as drawn. A value given as a limit tells only on which side of the number the result lay.

For `CO[C@H]1/C=C/O[C@@]2(C)Oc3c(C)c(O)c4c(c3C2=O)C2=NC3(CCN(CC(C)C)CC3)NC2=C(NC(=O)/C(C)=C\C=C\[C@H](C)[C@H](O)[C@@H](C)[C@@H](O)[C@@H](C)[C@H](OC(=O)CN2CCN(C)CC2)[C@@H]1C)C4=O` [Compound 6], the MIC in assay [1] is no more than 0.002 µg/mL; in assay [2], 0.01 µg/mL; in assay [3], 8 ng/mL (≈ 0.00846 µM); in assay [4], 1.3 µg/mL; in assay [5], 0.03 µg/mL (≈ 0.0317 µM); in assay [6] it was 0.03 µg/mL. The MIC in assay [7] is 1 µg/mL (≈ 1.06 µM); in assay [8] it was 0.04 µg/mL.

As to `CO[C@H]1/C=C/O[C@@]2(C)Oc3c(C)c(O)c4c(c3C2=O)C2=NC3(CCN(CC(C)C)CC3)NC2=C(NC(=O)/C(C)=C\C=C\[C@H](C)[C@H](O)[C@@H](C)[C@@H](O)[C@@H](C)[C@H](OC(=O)CNCCN2CCOCC2)[C@@H]1C)C4=O` [Compound 10], the MIC in assay [1] is no more than 0.002 µg/mL; in assay [2] it was 0.015 µg/mL; in assay [3] it was 8 ng/mL (≈ 0.0082 µM); in assay [4] it was 1 µg/mL; in assay [5], 0.03 µg/mL (≈ 0.0308 µM); in assay [6] it was 0.1 µg/mL. For the same compound, the figures for the MIC in assay [7] and in assay [8] were 1 µg/mL (≈ 1.03 µM) and 0.01 µg/mL, respectively.

On to `CO[C@H]1/C=C/O[C@@]2(C)Oc3c(C)c(O)c4c(c3C2=O)C2=NC3(CCN(CC(C)C)CC3)NC2=C(NC(=O)/C(C)=C\C=C\[C@H](C)[C@H](O)[C@@H](C)[C@@H](O)[C@@H](C)[C@H](OC(=O)CNCCCN(C)C)[C@@H]1C)C4=O` [Compound 12], for which the MIC in assay [1] was no more than 0.002 µg/mL; in assay [2], 0.0055 µg/mL; in assay [3], 3 ng/mL (≈ 0.00317 µM); in assay [4] it was 1.4 µg/mL; in assay [5], 0.03 µg/mL (≈ 0.0317 µM); in assay [6], 0.03 µg/mL. For the same compound, the MIC in assay [7] stood at 1 µg/mL (≈ 1.06 µM); in assay [8], 0.01 µg/mL.

With `CO[C@H]1/C=C/O[C@@]2(C)Oc3c(C)c(O)c4c(c3C2=O)C2=NC3(CCN(CC(C)C)CC3)NC2=C(NC(=O)/C(C)=C\C=C\[C@H](C)[C@H](O)[C@@H](C)[C@@H](O)[C@@H](C)[C@H](OC(=O)CN2CCC(n3c(=O)[nH]c5ccccc53)CC2)[C@@H]1C)C4=O` [Compound 18], the MIC in assay [1] was 0.03 µg/mL (≈ 0.0282 µM); in assay [2], 0.01 µg/mL; in assay [3], 2 ng/mL (≈ 0.00188 µM); in assay [4] it was 1.3 µg/mL; in assay [5], 0.5 µg/mL (≈ 0.471 µM); in assay [6] it was 0.09 µg/mL. The figures for the MIC in assay [7] and in assay [8] were 0.5 µg/mL (≈ 0.471 µM) and 0.01 µg/mL, respectively.

`CO[C@H]1/C=C/O[C@@]2(C)Oc3c(C)c(O)c4c(c3C2=O)C2=NC3(CCN(CC(C)C)CC3)NC2=C(NC(=O)/C(C)=C\C=C\[C@H](C)[C@H](O)[C@@H](C)[C@@H](O)[C@@H](C)[C@H](OC(=O)CN2CCC(n3c(=O)[nH]c5cc(Cl)ccc53)CC2)[C@@H]1C)C4=O` [Compound 19]: the MIC in assay [1] is 0.125 µg/mL (≈ 0.114 µM); in assay [2] it was 0.015 µg/mL; in assay [3] it was 3 ng/mL (≈ 0.00274 µM); in assay [4] it was 4 µg/mL; in assay [5], 4 µg/mL (≈ 3.65 µM); in assay [6], 0.24 µg/mL. For the same compound, the MIC was 0.5 µg/mL (≈ 0.456 µM) in assay [7] and 0.03 µg/mL in assay [8].

In the case of `CO[C@H]1/C=C/O[C@@]2(C)Oc3c(C)c(O)c4c(c3C2=O)C2=NC3(CCN(CC(C)C)CC3)NC2=C(NC(=O)/C(C)=C\C=C\[C@H](C)[C@H](O)[C@@H](C)[C@@H](O)[C@@H](C)[C@H](OC(=O)CN2CCC3(CC2)C(=O)NCN3c2ccccc2)[C@@H]1C)C4=O` [Compound 20], the MIC amounted to 0.03 µg/mL (≈ 0.0279 µM) in assay [1]; 0.01 µg/mL in assay [2]; 3 ng/mL (≈ 0.00279 µM) in assay [3]; 0.5 µg/mL in assay [4]; 0.5 µg/mL (≈ 0.465 µM) in assay [5]; 0.1 µg/mL in assay [6]. Moreover, the MIC in assay [7] worked out at 0.25 µg/mL (≈ 0.232 µM); in assay [8], 0.03 µg/mL.

Take `CO[C@H]1/C=C/O[C@@]2(C)Oc3c(C)c(O)c4c(c3C2=O)C2=NC3(CCN(CC(C)C)CC3)NC2=C(NC(=O)/C(C)=C\C=C\[C@H](C)[C@H](O)[C@@H](C)[C@@H](O)[C@@H](C)[C@H](OC(=O)CN2CCC(O)(Cc3ccccc3)CC2)[C@@H]1C)C4=O` [Compound 24]: the MIC in assay [1] came out at 0.016 µg/mL (≈ 0.0154 µM); in assay [2], 0.01 µg/mL; in assay [3] it was 4 ng/mL (≈ 0.00386 µM); in assay [4], 2 µg/mL; in assay [5], 0.125 µg/mL (≈ 0.121 µM); in assay [6], 0.1 µg/mL. Moreover, the MIC is 1 µg/mL (≈ 0.965 µM) in assay [7] and 0.01 µg/mL in assay [8].
